Assay: Amount of triclosan released from the bag into the dilution extender (LC-MS-MS)
Assay type: physicochemical
Details: bag of Example 3; for Amount of triclosan released into the dose / Proportion of triclosan released into the dose: five days, 17° C.; for Amount of triclosan released into the dose: full dose 70 ml; for Proportion of triclosan released into the dose: relative to approximately 532 μg in parts facing the pouch
Source text: A description will now be given of the trials with the bag of Example 3 to determine the amount of triclosan released into the dose of diluted semen such as 27 contained in the pouch such as 14 of that bag.
To simplify the trials, it was not a dose of diluted semen which was preserved in the bag but only dilution extender.
In this case, the dilution extender 53 (hereinafter “extender A”) and a conventional dilution extender containing an antibiotic (hereinafter “extender B”) were used.
One bag of Example 3 is filled with a dose of extender A and one bag of Example 3 with a dose of extender B.
Next the bags are left to rest for five days in the usual preservation conditions, that is to say 17° C. in horizontal position.
Next, the extender contained in each bag is analyzed, in order to determine the concentration of triclosan.
This analysis is made by liquid chromatography tandem mass spectrometry (LC-MS-MS method).
Based on the concentrations obtained, the amount of triclosan released is determined in a full dose provided to be contained in the bag, that is to say 70 ml.
It will be noted that the weight of triclosan taken into account in the sheets such as 11 and 12 of the bag of Example 3 for calculating the proportion released is not the weight of triclosan in the entirety of these sheets, but only in the parts facing the pouch such as 14. Here, these parts weigh approximately 1.835 g (determined after cutting out and weighing). As there are 29 mg of triclosan for 100 g of sheet. The amount of triclosan contained in these parts is approximately 532 μg.

[1] = Extender A (without antibiotic)
[2] = Extender B (containing an antibiotic)

Oc1cc(Cl)ccc1Oc1ccc(Cl)cc1Cl [triclosan]
Amount of triclosan released into the dose [1]: 2.7 µg
Proportion of triclosan released into the dose [1]: 0.5%
Amount of triclosan released into the dose [2]: 1.9 µg
Proportion of triclosan released into the dose [2]: 0.35%
amounts released into the dilution extenders (comment on the release results): around 1%

Source: patent US10123861B2, “Bag for packaging diluted animal semen suitable for artificial insemination, in particular of porcine species; and system comprising same” (IMV TECHNOLOGIES, priority 2014, dated 2018)
